Laboratory results published in patent US20100311841A1, “SYNTHETIC SPHINGOLIPID ANALOGS” (priority 2007, published 2010).

Tested on: TSU-PR1 cells
Experiment: TSU-PR1 tumor xenograft in whole-body-irradiated BALB/NUDE mice
Assay type: in vivo
Conditions: BALB/NUDE mice irradiated with 400 cGy, s.c. TSU-PR1 tumors; AD-2813 20 mg/kg in cremophor s.c. daily close to tumor; after about 10 days of treatment; compared to control and cremophor groups (FIG. 1)
Procedure: BALB/NUDE mice were whole body irradiated with 400 cGy, 10 days later they were injected s.c. with 3.5*10e6 TSU-PR1 cells/mouse which are commonly considered as prostate carcinoma cells but recently are also considered by some as bladder carcinoma cells. Eight days later, tumors were formed, and mice were separated into 3 groups: Group 1: a control without any injection. Group 2: were injected s.c. with vehicle (cremophor) Group 3: were treated s.c. daily with AD-2813 (20 mg/kg in cremophor) close to tumor. […] The drastic change in tumor volume is pronounced particularly when compared to the control and treatment with cremophor groups.

CCCCCCCCCCCCCCNC(CO)C(O)c1ccc(SC)cc1.Cl (stereo not shown) [AD-2813]
tumor volume: significant decrease in tumor volume
